Experimental data published in US20240197743A1, “WEE1 COMPOUND FOR TREATING UTERINE SEROUS CARCINOMA” (Recurium IP Holdings, LLC, priority 2021, published 2024).

Tests used:
[1] = test system: multiple cell lines and xenograft models; assay: in vitro antitumor activity in multiple cell lines and xenograft models; assay type: cell-based
[2] = test system: subjects with uterine serous carcinoma (USC); assay: ZN-c3-001 (NCT04158336) open label, multicenter, Phase I dose escalation and expansion study; subjects with USC at doses ≥300 mg QD; assay type: in vivo, human; settings: for Spleen: baseline 21 mm; for Peritoneum: baseline 17.8 mm
Procedure: ZN-c3-001 (NCT04158336) is an open label, multicenter, Phase I dose escalation and expansion study evaluating the safety and clinical activity of ZN-c3 in subjects with advanced or metastatic solid tumors, refractory to standard therapy or for whom no standard therapy is available. Oral, daily ZN-c3 dosing was escalated from 25 mg to 450 mg once daily (QD), with a recommended phase 2 dose of 300 mg QD. Here we report preliminary safety and efficacy results for subjects with USC who received ZN-c3 at doses ≥300 mg QD.

[3] = subject #1, Follow-up 1 (February 2021)
[4] = subject #1, Follow-up 2 (April 2021)
[5] = subject #1, Follow-up 3 (June 2021)
[6] = subject #2, Follow-up 1 (March 2021)
[7] = subject #2, Follow-up 2 (April 2021)
[8] = subject #2, Follow-up 2 (April 2021), baseline 15 mm
[9] = subject #2, Follow-up 3 (June 2021)
[10] = subject #2, Follow-up 3 (June 2021), baseline 15 mm
[11] = subject #2, Follow-up 4 (July 2021)
[12] = subject #2, Follow-up 4 (July 2021), baseline 15 mm
[13] = subject #2, Follow-up 5 (August 2021)
[14] = subject #2, Follow-up 5 (August 2021), baseline 15 mm
[15] = subject #3, Follow-up 1 (May 2021)
[16] = subject #3, Follow-up 2 (July 2021)
[17] = subject #3, Follow-up 3 (August 2021)
[18] = subject #3, Follow-up 4 (September 2021)
[19] = subject #3, Follow-up 5 (November 2021)

For `C=CCn1c(=O)c2cnc(Nc3ccc(N4CCN(C)CC4)cc3)nc2n1-c1ccc2c(n1)[C@@](O)(CC)CC2` [ZN-c3, (R)-2-allyl-1-(7-ethyl-7-hydroxy-6,7-dihydro-5H-cyclopenta[b]pyridin-2-yl)-6-((4-(4-methylpiperazin-1-yl)phenyl)amino)-1,2-dihydro-3H-pyrazolo[3,4-d]pyrimidin-3-one], the antitumor activity [1] was “significant in vitro antitumor activity”, the “progressive disease as best overall response” value ([2]; 1 of 11 evaluable USC subjects, ≥300 mg QD) was 9.1% and the “confirmed partial response as best overall response” value ([2]; 3 of 11 evaluable USC subjects, ≥300 mg QD) was 27.3%. The “stable disease as best overall response” value ([2]; 7 of 11 evaluable USC subjects, ≥300 mg QD) was 63.6%, the “Disease control rate (complete response, partial response, and stable disease)” value ([2]; 11 evaluable USC subjects, ≥300 mg QD) was 90.9% and the “Grade ≥3 TRAEs occurring in ≥2 subjects” value ([2]; 14 USC subjects, ≥300 mg QD) was “anemia and thrombocytopenia”. For the same compound, the “TRAEs grades 1-4 occurring in ≥3 subjects, by decreasing frequency” value ([2]; 14 USC subjects, ≥300 mg QD) was “nausea, vomiting, diarrhea, fatigue, decreased appetite, dehydration, and anemia”, the “subjects reporting at least one treatment-related adverse event (TRAE)” value ([2]; 14 USC subjects, ≥300 mg QD) was 12 of 14 and the “subjects with each Grade ≥3 hematologic event (anemia, thrombocytopenia)” value ([2]; 14 USC subjects, ≥300 mg QD) was 2 subjects each. For the same compound, the safety and tolerability ([2]; single agent, oral doses ≥300 mg QD) was “safe and well-tolerated”, the “peritoneum imaging result (FIG. 1)” value ([2]; subject #1, 2nd restaging (April 2021) vs baseline (November 2020)) was “confirmed partial response” and the best response ([2]; subject #1, start 350 mg QD) was “Confirmed PR”. For the same compound, the reduction overall ([2]; subject #1, start 350 mg QD) was 49%, the “time on the study drug until radiologic disease progression” value ([2]; subject #1, start 350 mg QD) was 199 days and the “Target Lesions” value ([2]; subject #1, start 350 mg QD, Follow-up 1 (February 2021), baseline 24 mm) was 15 mm. For the same compound, the “Tumor marker CA-125, minimum” value ([2]; subject #1, start 350 mg QD, after ~3 months of treatment, baseline 36 U/mL) was 12 U/mL, the “New Lesions” value [2, 3] was “No” and the “Percentage of overall tumor reduction” value [2, 3] was −48.9%. The “Tumor Response by RECIST 1.1” value [2, 3] was “Partial”, the Spleen [2, 3] was 8 mm and the “Target Lesions Sum” value ([2]; subject #1, Follow-up 1 (February 2021), baseline 45 mm) was 23 mm. The “New Lesions” value [2, 4] was “No”, the “Percentage of overall tumor reduction” value [2, 4] was −48.9% and the “Tumor Response by RECIST 1.1” value [2, 4] was “Partial”. The Spleen [2, 4] was 7 mm, the “Target Lesions” value ([2]; subject #1, Follow-up 2 (April 2021), baseline 24 mm) was 16 mm and the “Target Lesions Sum” value ([2]; subject #1, Follow-up 2 (April 2021), baseline 45 mm) was 23 mm. For the same compound, the “New Lesions” value [2, 5] was “No”, the “Percentage of overall tumor reduction” value [2, 5] was −48.9% and the “Tumor Response by RECIST 1.1” value [2, 5] was “Progressive”. For the same compound, the Spleen [2, 5] was 7 mm, the “Target Lesions” value ([2]; subject #1, Follow-up 3 (June 2021), baseline 24 mm) was 16 mm and the “Target Lesions Sum” value ([2]; subject #1, Follow-up 3 (June 2021), baseline 45 mm) was 23 mm. The “peritoneum imaging result (FIG. 2)” value ([2]; subject #2, 1st restaging (March 2021) vs baseline (January 2021)) was “partial response”, the best response ([2]; subject #2, start 300 mg QD) was “Confirmed PR” and the reduction overall ([2]; subject #2, start 300 mg QD) was 43%. For the same compound, the “time on the study drug until radiologic disease progression” value ([2]; subject #2, start 300 mg QD) was 230 days, the “Target Lesions” value ([2]; subject #2, start 300 mg QD, Follow-up 1 (March 2021), baseline 15 mm) was 06 mm and the “Tumor marker CA-125” value ([2]; subject #2, start 300 mg QD, after 2 months of treatment, baseline 440 U/mL) was < 50 U/mL. For the same compound, the “New Lesions” value [2, 6] was “No”, the “Percentage of overall tumor reduction” value [2, 6] was −43% and the “Tumor Response by RECIST 1.1” value [2, 6] was “Partial Response”. For the same compound, the “Lymph Node” value ([2]; subject #2, Follow-up 1 (March 2021), baseline 15 mm) was 11 mm, the “Target Lesions Sum” value ([2]; subject #2, Follow-up 1 (March 2021), baseline 30 mm) was 17 mm and the “New Lesions” value [2, 7] was “No”. For the same compound, the “Percentage of overall tumor reduction” value [2, 7] was −43%, the “Tumor Response by RECIST 1.1” value [2, 7] was “Partial Response” and the “Lymph Node” value [2, 8] was 10 mm. The “Target Lesions” value [2, 8] was 07 mm, the “Target Lesions Sum” value ([2]; subject #2, Follow-up 2 (April 2021), baseline 30 mm) was 17 mm and the “New Lesions” value [2, 9] was “No”. For the same compound, the “Percentage of overall tumor reduction, from baseline” value [2, 9] was −40% from baseline, the “Percentage of overall tumor reduction, from nadir” value [2, 9] was “+6% from nadir” and the “Tumor Response by RECIST 1.1” value [2, 9] was “Partial Response”. For the same compound, the “Lymph Node” value [2, 10] was 10 mm, the “Target Lesions” value [2, 10] was 8 mm and the “Target Lesions Sum” value ([2]; subject #2, Follow-up 3 (June 2021), baseline 30 mm) was 18 mm. For the same compound, the “New Lesions” value [2, 11] was “No”, the “Percentage of overall tumor reduction, from baseline” value [2, 11] was −30% from baseline and the “Percentage of overall tumor reduction, from nadir” value [2, 11] was “+24% from nadir”. The “Tumor Response by RECIST 1.1” value [2, 11] was “Partial Response”, the “Lymph Node” value [2, 12] was 10 mm and the “Target Lesions” value [2, 12] was 11 mm. The “Target Lesions Sum” value ([2]; subject #2, Follow-up 4 (July 2021), baseline 30 mm) was 21 mm, the “New Lesions” value [2, 13] was “No” and the “Percentage of overall tumor reduction, from baseline” value [2, 13] was −30% from baseline. For the same compound, the “Percentage of overall tumor reduction, from nadir” value [2, 13] was “+24% from nadir”, the “Tumor Response by RECIST 1.1” value [2, 13] was “Progressive Disease” and the “Lymph Node” value [2, 14] was 10 mm. The “Target Lesions” value [2, 14] was 11 mm, the “Target Lesions Sum” value ([2]; subject #2, Follow-up 5 (August 2021), baseline 30 mm) was 21 mm and the “peritoneum imaging result (FIG. 3)” value ([2]; subject #3, 5th restaging (November 2021) vs baseline (April 2021)) was “complete response”. For the same compound, the best response ([2]; subject #3, start 300 mg QD) was “Unconfirmed Complete Response”, the reduction overall ([2]; subject #3, start 300 mg QD) was 100% and the “time on the study drug until clinical disease progression” value ([2]; subject #3, start 300 mg QD) was 252 days. For the same compound, the “Target Lesions” value ([2]; subject #3, start 300 mg QD, Follow-up 1 (May 2021), baseline 36.6 mm) was 21.7 mm, the “New Lesions” value [2, 15] was “No” and the “Percentage of overall tumor reduction” value [2, 15] was −32%. The “Tumor Response by RECIST 1.1” value [2, 15] was “Partial Response”, the Peritoneum [2, 15] was 15.3 mm and the “Target Lesions Sum” value ([2]; subject #3, Follow-up 1 (May 2021), baseline 54.4 mm) was 37 mm. For the same compound, the “New Lesions” value [2, 16] was “No”, the “Percentage of overall tumor reduction” value [2, 16] was −67.8% and the “Tumor Response by RECIST 1.1” value [2, 16] was “Partial Response”. For the same compound, the Peritoneum ([2]; subject #3, Follow-up 2 (July 2021), (too small)) was 5 mm (too small), the “Target Lesions” value ([2]; subject #3, Follow-up 2 (July 2021), baseline 36.6 mm) was 12.5 mm and the “Target Lesions Sum” value ([2]; subject #3, Follow-up 2 (July 2021), baseline 54.4 mm) was 17.5 mm. The “New Lesions” value [2, 17] was “No”, the “Percentage of overall tumor reduction” value [2, 17] was −76.5% and the “Tumor Response by RECIST 1.1” value [2, 17] was “Partial Response”. For the same compound, the Peritoneum ([2]; subject #3, Follow-up 3 (August 2021), (too small)) was 5 mm (too small), the “Target Lesions” value ([2]; subject #3, Follow-up 3 (August 2021), baseline 36.6 mm) was 7.8 mm and the “Target Lesions Sum” value ([2]; subject #3, Follow-up 3 (August 2021), baseline 54.4 mm) was 12.8 mm. The “New Lesions” value [2, 18] was “No”, the “Percentage of overall tumor reduction” value [2, 18] was −82% and the “Tumor Response by RECIST 1.1” value [2, 18] was “Partial Response”. For the same compound, the Peritoneum ([2]; subject #3, Follow-up 4 (September 2021), (too small)) was 5 mm (too small), the “Target Lesions” value ([2]; subject #3, Follow-up 4 (September 2021), baseline 36.6 mm, (too small)) was 5 mm (too small) and the “Target Lesions Sum” value ([2]; subject #3, Follow-up 4 (September 2021), baseline 54.4 mm) was 10 mm. The “New Lesions” value [2, 19] was “No”, the “Percentage of overall tumor reduction” value [2, 19] was −100% and the “Tumor Response by RECIST 1.1” value [2, 19] was “Complete Response”. The Peritoneum [2, 19] was 0 mm, the “Target Lesions” value ([2]; subject #3, Follow-up 5 (November 2021), baseline 36.6 mm) was 0 mm and the “Target Lesions Sum” value ([2]; subject #3, Follow-up 5 (November 2021), baseline 54.4 mm) was 0 mm. For the same compound, the clinical activity ([2]; subjects with recurrent or advanced USC, Examples 1-3) was “demonstrated clinical activity”.
